Test results published in patent US20220008391A1, “NOVEL COMPOUNDS FOR CONTROLLING ARTHROPODS” (Bayer Animal Health GmbH, priority 2018, published 2022).
In brackets after ≈: the same amount, converted by molar mass.

Tests used:
Ctenocephalides felis = test: Antiparasitic activity after administration to rats, fleas; format: in vivo; settings: for flea efficacy on rats compared with the parent drug also injected subcutaneously: SC; for Efficacy SD42: sc, CF A, study day 42, 13.33-13.98 mg/kg prodrugs
Protocol: (§1) Measurement of the Antiparasitic Activity after Administration of a Prodrug to Rats Compounds were dissolved in the appropriate volume of glycerol formal (p.a.) just before application to the animals (dose volume was adjusted to 0.03 mL/kg bodyweight). 5 rats per group were either injected intraperitoneally or subcutaneously. Rats were infested with 30 Dermacentor variabilis nymphs on study days −2, 7, 14, 21, 28, 35 and 30 adult Ctenocephalides fleas on study days −1, 8, 15, 22, 29, 36. […] Percent efficacy was calculated as arithmetic mean parasite numbers as life attached tick numbers and live flea numbers of the respective study group in comparison to parasite counts on a placebo-treated control group. Infestation of groups with less than 75% efficacy on two consecutive counting occasions will terminated for the respective parasite.

Dermacentor variabilis [1] = test: Antiparasitic activity after administration to rats, tick nymphs; format: in vivo; settings: for tick efficacy on rats compared with the parent drug also injected subcutaneously: SC; for Efficacy SD42: sc, DV N, study day 42, 13.33-13.98 mg/kg prodrugs
Protocol: as §1

[2] = Measurement of solubility in buffer at pH 6.5; format: physicochemical; settings: aqueous buffer, kinetic from dmso stock; PBS buffer pH 6.5, shaken 24h at rt, LC-MSMS; read-out: Solubility of example compounds at pH 6.5
Protocol: Measurement of Solubility in Buffer at pH 6.5 2-4 mg of the test compound are dissolved in DMSO to reach a concentration of 50 g/L (solution A). To 10 μl of this solution 960 μl PBS buffer pH 6.5 are added (final concentration: 515 μg/1); the mixture is shaken for 24h at rt in a 96 well plate. An aliquot is centrifuged at 42000 rpm für 30 min. The supernatant is diluted with acetonitrile/water (8:2) 1:10 and 1:1000 resp. This diluted samples are analyzed by LC-MSMS. Calibration: 10 μl of solution A are diluted with 823 μl DMSO (final concentration: 600 μg/ml), which is further diluted with acetonitrile/water 8:2 by a factor of 100 (provides solution B). The calibration curve is obtained from solution B by further diluting with acetonitrile/water 8:2 with target concentrations of 1.2-12-60-600 ng/ml and injecting these four solutions for MS measurement. PBS-Puffer: 6.18 g sodium chloride and 3.96 g sodium dihydrogen phosphate are dissolved in 1 L aqua dist., the pH is adjusted to 6.5 with 1N sodium hydroxide. The following conditions were used for quantification: Autosampler without auto inject ahead setting, column: Waters OASIS HLB, 2,1×20 mm, 25μ, column temperature: 30° C., flow rate: 2.5 mL/min, injected volume: 2 μl, Splitter (before MS) 1:20.

[3] = Degradation of prodrugs and release of parent compound in dog plasma; format: in vitro ADME
Protocol: Measurement of Release of Parent Compound in Dog Plasma 1 mg of the test compound was dissolved in 0.5 mL acetonitrile/dimethylsulfoxide 9:1. For complete dissolution the HPLC vial was shaken and treated with ultrasound. 20 μl of this solution were added to 1 mL of dog plasma (Beagle) under vortexing at a temperature of 37° C. Aliquots (100 μL each) were taken at 0.17, 0.5, 1, 1.5, 2 and 4 hours. Each aliquot was transferred to a vial containing 300 μL of acetonitrile/citric acid buffer pH 3 80:20. These solutions were centrifuged at 5000 rpm for 10 minutes. The supernatant was analysed by HPLC (Method 8) to determine the amount of the test compound. In addition, the reaction mixture was analysed by method 9 (HPLC-MS) at the final timepoint. Both decrease of the prodrug concentration and increase of parent compound concentration were monitored. All data is given as percent area of the prodrug at t0.

Dermacentor variabilis [4] = test: Antiparasitic activity after administration to dogs, D. variabilis ticks; format: in vivo; settings: sc
Protocol: Measurement of the Antiparasitic Activity after Administration of a Prodrug to Dogs
Compounds were dissolved in the appropriate volume of glycerol formal (p.a.) just before application to the animals (dose volume was adjusted to 0.1 ml/kg bodyweight). Dogs were injected intravenously respective subcutaneously (see table 8 for details).
Dogs were infested with ectoparasites according to table on study 1 day prior to counting for fleas, 2 days prior to counting for RS, IR, DV ticks and 3 days prior to counting for AA ticks. For this purpose, dogs were placed in an individually labeled box with grid windows. The ticks were released onto the back of the dogs and were allowed to disperse and move into the hair without disturbance. The dog remained in the box for approximately 120 minutes with the lid closed and the light switched off in the room. For flea infestations, flea containers were opened in the animal's cage and fleas were applied on the dog's back between the shoulders.
Tick counts including removal of I. ricinus, R. sanguineus and D. variabilis were conducted 48(±4) hours after the infestation. Tick counts including removal of A. americanum were conducted 72(±4) hours after the infestation. Flea counts were conducted 24(±4) hours after the infestation.
On each parasite assessment day percent efficacy was calculated as arithmetic mean parasite numbers as life attached and live free tick numbers and live flea numbers of the respective study group in comparison to parasite counts on a placebo non-treated control group.

| Compound | solubility at 24 h [2] [µg/mL] | flea efficacy on rats compared with the parent drug also injected subcutaneously (Ctenocephalides felis) | tick efficacy on rats compared with the parent drug also injected subcutaneously (Dermacentor variabilis [1]) | Efficacy SD42 (Ctenocephalides felis) [%] | Efficacy SD42 (Dermacentor variabilis [1]) [%] | also measured |
| --- | --- | --- | --- | --- | --- | --- |
| CC(C)(COC(=O)/C=C/C(=O)O)COC(=O)OCN(C(=O)c1cc(-c2cnn(-c3c(Cl)cc(C(F)(C(F)(F)F)C(F)(F)F)cc3OC(F)(F)F)c2)ccc1Cl)C1(C#N)CC1 [Example 4, (12E)-1-(2-chloro-5-{1-[2-chloro-4-(1,1,1,2,3,3,3-heptafluoropropan-2-yl)-6-(trifluoromethoxy)phenyl]-1H-pyrazol-4-yl}phenyl)-2-(1-cyanocyclopropyl)-8,8-dimethyl-1,5,11-trioxo-4,6,10-trioxa-2-azatetradec-12-en-14-oic Acid] | 2 (≈ 2.2 µM) | superior | superior |  |  |  |
| N#CC1(N(COC(=O)OCCOC(=O)/C=C/C(=O)O)C(=O)c2cc(-c3cnn(-c4c(Cl)cc(C(F)(C(F)(F)F)C(F)(F)F)cc4OC(F)(F)F)c3)ccc2Cl)CC1 [Example 1, (11E)-1-(2-Chloro-5-{1-[2-chloro-4-(1,1,1,2,3,3,3-heptafluoropropan-2-yl)-6-(trifluoromethoxy)phenyl]-1H-pyrazol-4-yl}phenyl)-2-(1-cyanocyclopropyl)-1,5,10-trioxo-4,6,9-trioxa-2-azatridec-11-en-13-oic Acid] | 5 (≈ 5.78 µM) | superior | superior | 79 | 81 | % Parent Drug 4 h ([3]; Beagle, dog, 4 h, 39.2 µg/mL): 32%; recovery at 0.17 h, 39 µg/mL ([3]; dog plasma (Beagle), 37° C., 0.17 h, percent area of prodrug at t0): 100%; recovery at 0.5 h, 39 µg/mL ([3]; dog plasma (Beagle), 37° C., 0.5 h): 100%; recovery at 1 h, 39 µg/mL ([3]; dog plasma (Beagle), 37° C., 1 h): 100%; recovery at 1.5 h, 39 µg/mL ([3]; dog plasma (Beagle), 37° C., 1.5 h): 88%; recovery at 2 h, 39 µg/mL ([3]; dog plasma (Beagle), 37° C., 2 h): 82%; recovery at 4 h, 39 µg/mL ([3]; dog plasma (Beagle), 37° C., 4 h): 54%; duration of efficacy against D. variabilis as least sensitive species (Dermacentor variabilis [4]): five; % Efficacy in study month 4 (Dermacentor variabilis [4]; 13.33 mg/kg (=10 parent), DV, study 4, month 4): 96%; % Efficacy in study month 5 (Dermacentor variabilis [4]; 13.33 mg/kg (=10 parent), DV, study 4, month 5): 100%; % Efficacy in study month 6 (Dermacentor variabilis [4]; 13.33 mg/kg (=10 parent), DV, study 4, month 6): 77% |
| N#CC1(N(COC(=O)OCCCOC(=O)/C=C/C(=O)O)C(=O)c2cc(-c3cnn(-c4c(Cl)cc(C(F)(C(F)(F)F)C(F)(F)F)cc4OC(F)(F)F)c3)ccc2Cl)CC1 [Example 2, (12E)-1-(2-Chloro-5-{1-[2-chloro-4-(1,1,1,2,3,3,3-heptafluoropropan-2-yl)-6-(trifluoromethoxy)phenyl]-1H-pyrazol-4-yl}phenyl)-2-(1-cyanocyclopropyl)-1,5,11-trioxo-4,6,10-trioxa-2-azatetradec-12-en-14-oic Acid] | 4 (≈ 4.55 µM) |  |  | 69 | 82 |  |
| N#CC1(N(COC(=O)OCC2(C(=O)O)CC2)C(=O)c2cc(-c3cnn(-c4c(Cl)cc(C(F)(C(F)(F)F)C(F)(F)F)cc4OC(F)(F)F)c3)ccc2Cl)CC1 [Example 35, 1-{[({[(2-chloro-5-{1-[2-chloro-4-(1,1,1,2,3,3,3-heptafluoropropan-2-yl)-6-(trifluoromethoxy)phenyl]-1H-pyrazol-4-yl}benzoyl)(1-cyanocyclopropyl)amino]methoxy}carbonyl)oxy]methyl}cyclopropane-1-carboxylic Acid] | 8 (≈ 9.74 µM) |  |  |  |  |  |

Second part, led by results:

| solubility at 24 h [2] [µg/mL] | Compound | flea efficacy on rats compared with the parent drug also injected subcutaneously (Ctenocephalides felis) | tick efficacy on rats compared with the parent drug also injected subcutaneously (Dermacentor variabilis [1]) | Efficacy SD42 (Ctenocephalides felis) [%] | Efficacy SD42 (Dermacentor variabilis [1]) [%] | also measured |
| --- | --- | --- | --- | --- | --- | --- |
| 16 (≈ 20.1 µM) | N#CC1(N(COC(=O)OCCC(=O)O)C(=O)c2cc(-c3cnn(-c4c(Cl)cc(C(F)(C(F)(F)F)C(F)(F)F)cc4OC(F)(F)F)c3)ccc2Cl)CC1 [Example 36, 3-[({[(2-Chloro-5-{1-[2-chloro-4-(1,1,1,2,3,3,3-heptafluoropropan-2-yl)-6-(trifluoromethoxy)phenyl]-1H-pyrazol-4-yl}benzoyl)(1-cyanocyclopropyl)amino]methoxy}carbonyl)oxy]propanoic Acid] |  |  |  |  |  |
| 37 (≈ 45.6 µM) | Cn1nc(C(F)(F)C(F)(F)F)c(C(F)(F)F)c1-n1cc(-c2ccc(Cl)c(C(=O)N(COC(=O)O[C@@H]3CCC[C@H]3OC(=O)CCC(=O)O)C3(C#N)CC3)c2)cn1 [Example 38, 4-({(1R,2R)-2-[({[{2-Chloro-5-[2′-methyl-5′-(pentafluoroethyl)-4′-(trifluoromethyl)-2′H-[1,3′-bipyrazol]-4-yl]benzoyl}(1-cyanocyclopropyl)amino]methoxy}carbonyl)oxy]cyclopentyl}oxy)-4-oxobutanoic Acid] |  |  |  |  |  |
